Measurements published in paper PMC12603070, “A high-throughput screening approach to discover potential colorectal cancer chemotherapeutics: repurposing drugs to identify novel disruptors of 14-3-3 proteins” (Cell Death & Disease, 2025).
Where a name gives a salt, the structure may show the parent alone. Read-outs that look alike come from different tables or passages of the source.

Tests used:
[1] = molecular target: T1, 14-3-3ζ:BAD-112-136F interactions (Homo sapiens, UniProt P63104); assay: BRET sensor screen for disruption of 14-3-3ζ-Rluc8:BAD-112-136F-mCitrine in living NIH-3T3 cells; type: cell-based, murine; set-up: inhibition: dose or concentration left out as unconfirmed; BRET reduction on NIH-3T3: unit not given here; settings: for inhibition at 20 µM / inhibition: NIH3T3, 3 h, read-out: BRET reduction on NIH-3T3
T1 construct: expressed in transfected cells; host or cells: NIH-3T3 fibroblasts, bi-directional pBI-CMV1 plasmid
T1 sequence (P63104 1-245): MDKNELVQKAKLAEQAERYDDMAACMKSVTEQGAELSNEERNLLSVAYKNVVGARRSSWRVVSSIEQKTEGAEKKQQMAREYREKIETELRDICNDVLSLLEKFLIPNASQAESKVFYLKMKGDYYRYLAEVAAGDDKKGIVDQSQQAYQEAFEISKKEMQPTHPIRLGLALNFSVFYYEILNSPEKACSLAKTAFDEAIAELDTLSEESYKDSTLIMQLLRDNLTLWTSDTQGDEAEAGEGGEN
In short: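 NIH-3T3 cells were transfected with the BRET sensor two days beforehand, then replated on poly-L-ornithine-coated plates and grown 24 h at 37 °C. Medium was then replaced with Krebs buffer (pH 7.4). Z′-score was calculated to judge HTS robustness.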

NIH-3T3 cells = assay: Hoechst/propidium iodide cell death assay in NIH-3T3; type: cell-based; settings: for cytotoxicity at 20 µM: Mus musculus, NIH3T3, 24 h, read-out: Percentage of cell death % 24h NIH3t3
From the text: (§1) A high-content imaging system (PerkinElmer; Operetta CLS), was used to quantify cell death and apoptosis by calculating the number of propidium iodide-positive cells relative to Hoechst-positive cells, and the number of Annexin V-positive cells relative to Hoechst-positive cells, respectively.

HT-29 cells = assay: Hoechst/propidium iodide cell death assay in HT-29; type: cell-based, human; settings: for %Cell death HT-29: time not given; for cytotoxicity at 20 µM: Homo sapiens
From the text: as §1

Caco-2 cells = type: cell-based; settings: for Percentage of cell death % 24h CACO-2: 20 µM; for Percentage of cell death % 48h, Caco-2: 20 μM
From the text: as §1

[2] = NIH-3T3 cells, hits from the primary screen
[3] = NIH-3T3 expressing BRET sensor, 20 µM, 3 h
[4] = HT-29, 24 h, 20 µM, 24 h, read-out: Percentage of cell death % 24h HT-29
[5] = HT-29, 48 h, HT-29, 48h, 20 μM, read-out: Percentage of cell death % 48h, HT-29

SMILES	BRET reduction on NIH-3T3 [1, 2]	BRET reduction on NIH-3T3 [1, 3]	Percentage of cell death % 24h NIH3t3 (NIH-3T3 cells; 20 µM, 24 h)	Percentage of cell death % 48h, NIH3T3 (NIH-3T3 cells)	Percentage of cell death % 24h HT-29 (HT-29 cells; 20 µM, 24 h)	Percentage of cell death % 48h, HT-29 (HT-29 cells; HT-29, 48h, 20 μM)	%Cell death HT-29 (HT-29 cells; HT-29)	%Cell death Caco-2 (Caco-2 cells)	inhibition at 20 µM [1]	cytotoxicity at 20 µM (NIH-3T3 cells)	cytotoxicity at 20 µM (HT-29 cells; HT-29, 24 h, read-out: Percentage of cell death % 24h HT-29)	cytotoxicity at 20 µM (HT-29 cells; HT-29, 48 h, read-out: Percentage of cell death % 48h, HT-29)	Percentage of cell death % 24h CACO-2 (Caco-2 cells)	Percentage of cell death % 48h, Caco-2 (Caco-2 cells)	inhibition [1, 2]	inhibition at 20 µM [1, 3]	cytotoxicity at 20 µM (NIH-3T3 cells; 20 µM, 24 h)	cytotoxicity at 20 µM (HT-29 cells; [4])	cytotoxicity at 20 µM (HT-29 cells; [5])	%Cell death Caco-2 (Caco-2 cells; time not given, text says 48 h)
COC(=O)[C@]12CCC(C)(C)C[C@H]1[C@H]1C(=O)C=C3[C@@]4(C)C=C(C#N)C(=O)C(C)(C)[C@@H]4CC[C@@]3(C)[C@]1(C)CC2 [Bardoxolone methyl]	39.4225	39.4225	87.0027%	72.1638%	43.1592%	67.5309%	67.5%	19.2%												
CCCCCCCCCCCCCCCC[N+](C)(C)C [Cetrimonium Bromide (CTAB), Cetrimonium Bromide]	35.3912			66.4515%					35.4%	73.5%	11.5%	55.4%	19.5542%	50.4821%						
C[C@@H](NCCCc1cccc(C(F)(F)F)c1)c1cccc2ccccc12 [Cinacalcet HCl]	50.3473	50.3473	81.0537%	69.2945%	35.6614%	79.6038%							64.4357%	76.6269%						
C[C@@H](NCCCc1cccc(C(F)(F)F)c1)c1cccc2ccccc12 [Cinacalcet]				90.5083%			70.3%						40.5775%	49.3803%	47.7%	47.7%	75.5%	30%	70.3%	49.4%
CCN(CC)CCOc1ccc(C(=C(Cl)c2ccccc2)c2ccccc2)cc1 [Clomiphene citrate]				58.221%			52.0%	34.7%							38.2%	38.2%	10.1%	1.46%	52%	
CCCCCCCCCCCC[N+](C)(C)CCOc1ccccc1 [Domiphen Bromide]				69.1517%									24.2566%	80.35%	49%	49%	81.2%	15%	57.1%	
CO[C@H]1C[C@H](O[C@H]2[C@H](C)O[C@@H](O[C@@H]3/C(C)=C/C[C@@H]4C[C@@H](C[C@]5(C=C[C@H](C)[C@@H](C6CCCCC6)O5)O4)OC(=O)[C@@H]4C=C(C)[C@@H](O)[C@H]5OC/C(=C\C=C\[C@@H]3C)[C@]54O)C[C@@H]2OC)O[C@@H](C)[C@@H]1O [Doramectin]	36.2699	36.2699	51.7189%	58.749%	11.0069%	51.5756%	51.6%	32.3%												
CCCCc1oc2ccc(NS(C)(=O)=O)cc2c1C(=O)c1ccc(OCCCN(CCCC)CCCC)cc1 [Dronedarone HCl]	49.6356	49.6356	85.6589%	84.99%	82.9811%	91.5188%							77.641%	87.4152%						
CCCCc1oc2ccc(NS(C)(=O)=O)cc2c1C(=O)c1ccc(OCCCN(CCCC)CCCC)cc1 [Dronedarone]				83.8385%	52.4326%		79.0%						69.9639%	86.906%	50.4%	50.4%	88.3%		79%	86.9%
O=C1Nc2ccc(Cl)cc2[C@@](C#CC2CC2)(C(F)(F)F)O1 [Efavirenz]				7.6471%			22.0%	20.5%							30.3%	30.3%	41.4%	18.5%	22%	
CCCCCCCCCCCC1=C(O)C(=O)C=C(O)C1=O [Embelin]				37.4899%			51.8%	1.7%							37%	37%	69.5%	19%	51.8%	
Cl.Cl.Fc1ccc(C(c2ccc(F)cc2)N2CCN(C/C=C/c3ccccc3)CC2)cc1 [Flunarizine 2HCl]	36.4286	36.4286	0.377%	0.5715%	0.7908%	1.34%							3.891%	3.726%						
C=CCc1ccc(O)c(-c2ccc(O)c(CC=C)c2)c1 [Honokiol]				11.7537%									22.4688%	15.5538%	34.2%	34.2%	27.4%	8.61%	11.1%	
